From patent US20240277890A1, “ANTIMICROBIAL ARTICLES COMPRISING POLYURETHANE” (Amicoat AS, priority 2021, published 2024)
≈ marks a conversion by molar mass, not a printed value.

Legend:
[1] = test system: MU50 Staphylococcus aureus (MRSA) - VISA type strain
[2] = test system: Staphylococcus haemolyticus - antibiotic susceptible clinical isolate
[3] = test system: Streptococcus pyogenes - Macrolide (MLS) resistant clinical isolate
[4] = test system: Staphylococcus aureus, strain ATCC 25923; settings: ATCC 25923
[5] = test system: Candida tropicalis ATCC750 - reference strain
[6] = test system: Enterobacter sp - antibiotic-susceptible clinical isolate
[7] = test system: Enterococcus faecalis vancomycin-resistant (VanA) clinical isolate
[8] = test system: Enterococcus faecalis high-level gentamicin-resistant clinical isolate
[9] = test system: Methicillin resistant Staphylococcus aureus (MRSA) strain ATCC 33591; settings: ATCC 33591
[10] = test system: Salmonella sp - antibiotic-susceptible clinical isolate; experiment: MIC microbroth dilution (CLSI); format: cell-based
[11] = test system: Enterococcus faecium vancomycin-resistant (VanA) clinical isolate
[12] = test system: Candida albicans ATCC90028 - reference strain
[13] = test system: Streptococcus bovis - antibiotic-susceptible clinical isolate
[14] = test system: Group C Streptococcus - antibiotic-susceptible clinical isolate
[15] = test system: Group G Streptococcus - antibiotic-susceptible clinical isolate
[16] = test system: Streptococcus pneumoniae - penicillin-susceptible clinical isolate
[17] = test system: Haemophilus influenzae β-lactamase negative ampicillin-resistant clinical isolate
[18] = test system: Corynebacterium jeikeium - antibiotic-susceptible clinical isolate
[19] = test system: Stenotrophomonas maltophilia - antibiotic-susceptible clinical isolate
[20] = test system: EMRSA1 Staphylococcus aureus (MRSA) - SSCmec type 3; settings: EMRSA1 - SSCmec type 3
[21] = test system: EMRSA15 Staphylococcus aureus (MRSA) - SSCmec type 4; settings: EMRSA15 - SSCmec type 4
[22] = test system: Streptococcus bovis - macrolide-resistant clinical isolate
[23] = test system: Enterococcus gallinarum vancomycin-resistant (VanC) clinical isolate
[24] = test system: Group G Streptococcus - macrolide-resistant clinical isolate
[25] = test system: Trichophyton mentagrophytes - G.R. Micro collection
[26] = test system: HT2001254 Staphylococcus aureus (MRSA) - PVL positive; settings: HT2001254 S. aureus (MRSA) PVL positive
[27] = test system: Staphylococcus saprophyticus - antibiotic susceptible clinical isolate
[28] = test system: Morganella morganii - multi-drug resistant clinical isolate
[29] = test system: Enterococcus faecalis vancomycin-resistant (VanB) clinical isolate
[30] = test system: Candida parapsilosis ATCC90018 - reference strain
[31] = test system: Staphylococcus aureus FDA486; experiment: Murine skin infection model, one day topical treatment; format: in vivo, mice; settings: 2% cream; compared to placebo cream, Fucidin ointment 2% and Bactroban cream 2%
Experimental: The skin of mice was infected with Staphylococcus aureus or Streptococcus pyogenes and subsequently given a total of three treatments at three hourly intervals. Three hours after the last treatment, skin biopsies were collected and the number of colony forming units (CFUs) present in the skin sample was determined. Results are shown in FIGS. 3, 4 and 5 expressed as the number of colony forming units per mouse.

[32] = test system: Staphylococcus aureus - multi-drug-resistant clinical isolate
[33] = test system: Candida albicans ATCC24433 - reference strain
[34] = test system: Streptococcus agalactiae - antibiotic-susceptible clinical isolate
[35] = test system: Klebsiella aerogenes NCTC11228 - antibiotic-susceptible type strain

## CCCCCCNC(=O)[C@H](CCCNC(=N)N)NC(=O)[C@H](Cc1c(C(C)(C)C)[nH]c2c(C(C)(C)C)cc(C(C)(C)C)cc12)NC(=O)[C@@H](N)CCCNC(=N)N [Compound 8]
[1]
  MIC: 4 µg/mL (≈ 5.21 µM)
[2]
  MIC: 4 µg/mL (≈ 5.21 µM)
[3]
  MIC: 8 µg/mL (≈ 10.4 µM)
[4]
  S. aureus (MIC): 2 µg/mL
[5]
  MIC: 4 µg/mL (≈ 5.21 µM)
[6]
  MIC: 8 µg/mL (≈ 10.4 µM)
[7]
  MIC: 4 µg/mL (≈ 5.21 µM)
[8]
  MIC: 8 µg/mL (≈ 10.4 µM)
[9]
  MRSA (MIC): 2 µg/mL
[10]
  MIC: 8 µg/mL (≈ 10.4 µM)
[11]
  MIC: 4 µg/mL (≈ 5.21 µM)
[12]
  MIC: 4 µg/mL (≈ 5.21 µM)
[13]
  MIC: 8 µg/mL (≈ 10.4 µM)
[14]
  MIC: 8 µg/mL (≈ 10.4 µM)
[15]
  MIC: 8 µg/mL (≈ 10.4 µM)
[16]
  MIC: 8 µg/mL (≈ 10.4 µM)
[17]
  MIC: 8 µg/mL (≈ 10.4 µM)
[18]
  MIC: 4 µg/mL (≈ 5.21 µM)
[19]
  MIC: 4 µg/mL (≈ 5.21 µM)
[20]
  MIC: 4 µg/mL (≈ 5.21 µM)
[21]
  MIC: 4 µg/mL (≈ 5.21 µM)
[22]
  MIC: 2 µg/mL (≈ 2.6 µM)
[23]
  MIC: 4 µg/mL (≈ 5.21 µM)
[24]
  MIC: 8 µg/mL (≈ 10.4 µM)
[25]
  MIC: 4 µg/mL (≈ 5.21 µM)
[26]
  MIC: 4 µg/mL (≈ 5.21 µM)
[27]
  MIC: 0.5 µg/mL (≈ 0.651 µM)
[28]
  MIC: 8 µg/mL (≈ 10.4 µM)
[29]
  MIC: 8 µg/mL (≈ 10.4 µM)
[30]
  MIC: 8 µg/mL (≈ 10.4 µM)
[31]
  number of CFUs in skin biopsy: more effective at reducing the number of CFUs than the placebo and fucidin or bactroban
[32]
  MIC: 4 µg/mL (≈ 5.21 µM)
[33]
  MIC: 8 µg/mL (≈ 10.4 µM)
[34]
  MIC: 8 µg/mL (≈ 10.4 µM)
[35]
  MIC: 8 µg/mL (≈ 10.4 µM)
